Literature values as cited in US9345733B1, “Supplement composition for supporting telomere maintenance and protection and method of use” (CELLHEALTH TECHNOLOGIES LTD., priority 2011, dated 2016).
Where two headings read alike, the source gives them in different places.

Columns and labels:
[1] = tested on: diseased endothelial cells; details: chronic exposure; via activation of hTERT and transient telomere stabilization
TNF-a [2] = details: hypertensive rats
alveolar macrophages = alveolar macrophages in idiopathic pulmonary fibrosis in vitro
[3] = tested on: endothelial nitric oxide synthase; details: human aortic endothelial cells
[4] = tested on: human arterial smooth muscle cells (HASMCs)
[5] = tested on: vascular smooth muscle cells; details: stimulated by tumor necrosis factor-alpha
[6] = tested on: endothelial nitric oxide synthase; details: HUVEC, at nanomolar concentrations
[7] = tested on: endothelial progenitor cells; details: in culture
NF-κB and TNF-a = details: peripheral blood mononuclear cells of asthma patients, in-vitro
[8] = tested on: chronic colonic inflammation; details: mice, dietary supplementation; reductions of TNF-a and IL-1β, increase of IL-10
[9] = tested on: human peripheral blood mononuclear cells; details: stimulated human peripheral blood mononuclear cells in vitro
[10] = tested on: endothelial progenitor cells
TNF-a [11] = target: TNF-a (Homo sapiens, UniProt P01375)
Chain of TNF-a (Homo sapiens, UniProt P01375) (P01375 77-233 limits assumed, species assumed): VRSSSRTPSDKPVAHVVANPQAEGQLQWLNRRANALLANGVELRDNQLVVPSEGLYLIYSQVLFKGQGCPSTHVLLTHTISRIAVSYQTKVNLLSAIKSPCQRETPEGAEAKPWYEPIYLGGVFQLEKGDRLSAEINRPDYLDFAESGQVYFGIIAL

[12] = tested on: IL-23p19, IFN-y, TNF-a, IL-6, MCP-1; details: ileum of treated animals

For `CC(=O)N[C@@H](CS)C(=O)O` [N-acetylcysteine], the “senescence of diseased endothelial cells” value [1] is given as “can delay senescence”, the “progression of cardiac injury” value (TNF-a [2]) is given as “hinders” and the “serum TNF-a level” value (TNF-a [2]) is given as “normalizes”. For the same compound, the “deleterious effect of TNF-a on calcium transients and contraction” value (adult rat cardiomyocytes) was “prevents” and the “TNF-a, sTNFR, and TGF-beta1 release” value (alveolar macrophages) was “inhibits”.

In the case of `CC(C)=CCC[C@](C)(O[C@@H]1O[C@H](CO[C@@H]2O[C@H](CO)[C@@H](O)[C@H](O)[C@H]2O)[C@@H](O)[C@H](O)[C@H]1O)[C@H]1CC[C@]2(C)[C@@H]1[C@H](O)C[C@@H]1[C@@]3(C)CC[C@H](O[C@@H]4O[C@H](CO)[C@@H](O)[C@H](O)[C@H]4O[C@@H]4O[C@H](CO)[C@@H](O)[C@H](O)[C@H]4O)C(C)(C)[C@@H]3CC[C@]12C` [ginsenoside Rb1], the “endothelial nitric oxide synthase-Ser1177 phosphorylation and nitric oxide production” value [3] is listed as “acutely induces”.

For `CC(C)=CCC[C@](C)(O[C@@H]1O[C@H](CO)[C@@H](O)[C@H](O)[C@H]1O)[C@H]1CC[C@]2(C)[C@@H]1[C@H](O)C[C@@H]1[C@@]3(C)CC[C@H](O)C(C)(C)[C@@H]3[C@@H](O[C@@H]3O[C@H](CO)[C@@H](O)[C@H](O)[C@H]3O)C[C@]12C` [ginsenoside Rg1], the “TNF-a-induced HASMCs proliferation” value [4] is given as “inhibits”, the “proliferation of vascular smooth muscle cells” value [5] is given as “inhibits” and the “endothelial nitric oxide synthase phosphorylation via Akt” value [6] is given as “induces”.

In the case of `O=c1c(-c2ccc(O)cc2)coc2c([C@@H]3O[C@H](CO)[C@@H](O)[C@H](O)[C@H]3O)c(O)ccc12` [puerarin, Puerarin], the “onset of endothelial progenitor cells senescence” value [7] is given as “dose dependently prevents”, the “proliferation of endothelial progenitor cells” value [7] is given as “increases” and the “pathway of NF-κB and TNF-a” value (NF-κB and TNF-a) is given as “could inhibit”.

For `Oc1ccc(C=Cc2cc(O)cc(O)c2)cc1` [resveratrol, Resveratrol], the chronic colonic inflammation [8] is given as “attenuates”, the homocysteine formation [9] is given as “suppresses” and the “onset of endothelial progenitor cells senescence” value [10] is given as “delayed the onset”. The telomerase ([10]; through the PI3K-Akt signalling pathway) was “activation of telomerase”, the “TNF-a induced changes of adipokines” value (TNF-a [11]) was “inhibits” and the “pro-inflammatory cytokine expression (IL-23p19, IFN-y, TNF-a, IL-6, MCP-1)” value [12] was “significantly lower”.
